Test systems include MDA-MB-435; PC-3 prostate; DMS 114 small cell lung; M19-MEL melanoma; NCI-H226 lung.
What all share (assay): DTP human tumour cell line panel, 48 h

Several values for one entry are separate records, joined by “and”; a condition that tells them apart may be missing. Equal entries are not always repeated.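 Five concentrations, 48 hours, 96-well plates. GI50 is the concentration that inhibits growth by half. TGI: concentration producing complete growth inhibition.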

As for `O=C1/C(=C/c2ccc(Cl)c(Cl)c2)CN(C(=O)CCN2CCOCC2)C/C1=C\c1ccc(Cl)c(Cl)c1`, the TGI is 30.9 nM in the test on MDA-MB-435; 15.7 nM in the test with PC-3 prostate; 2340 nM and 1330 nM in the test with DMS 114 small cell lung; 3000 nM and 2400 nM in the test with M19-MEL melanoma; 4550 nM and 4150 nM in the test with NCI-H226 lung. Further, the GI50 with DMS 114 small cell lung is 346 nM; in the test with M19-MEL melanoma, 1090 nM.

The TGI is the concentration giving total growth inhibition. High values mean less potent growth arrest, low ones more potent growth arrest. One may read the GI50 as the concentration that inhibits growth by half.

Source of the values: PubChem BioAssay (NCI).
